Assay results as given in patent US20190142722A1, “METHODS AND COMPOSITIONS FOR PROMOTING OR INDUCING HAIR GROWTH” (THE TRUSTEES OF COLUMBIA UNIVERSITY IN THE CITY OF NEW YORK, priority 2017, published 2019).

What was measured:
telogen skin [1] = experiment: Anagen induction by topical JAK inhibitor in mouse telogen skin; type: in vivo; conditions: topical to dorsal skin for 5 days at P60 (mid-telogen), C57BL/6 mice
Source text: (§1) Mice were carefully shaved with clippers during telogen to reveal the pink skin typical of the telogen phase 1 week prior to the experiment. Mice that were inadvertently wounded were not used. Anagen was induced by topical application of 2% Ruxolitinib in DMSO to the right side of the dorsal skin daily for 5 consecutive days. The hair cycle was observed and documented with standardized photographs taken prior to the first treatment, and then twice weekly thereafter. Murine IL-6, LIF or OSM (100 ng/ml, 50 ng/ml, 125 ng/ml respectively) were dissolved in sterile PBS and 100 μl was injected into the center of the field of application daily for 10 consecutive days, beginning with the first application of Ruxolitinib.
(§2) OSM and other gp130 cytokines (IL-6 and Leukemia Inhibitory Factor, LIF) were tested for their ability to inhibit anagen resulting from topical JAK inhibitors, which resembles spontaneous anagen. C57BL/6 mice were treated on the right dorsal skin topically with Ruxolitinib 2% in DMSO at P60 (mid-telogen) for 5 days, recapitulating previous experiments in Harel, S., et al., Pharmacologic inhibition of JAK-STAT signaling promotes hair growth. Sci Adv, 2015. 1(9): p. e1500973. […] From P60, mice were also injected with control PBS or a gp130 cytokine (IL-6, LIF or OSM) into the middle of the field of topical application for 10 days. […] (FIG. 1A).

[2] = system: Hair follicle stem cells (HFSCs); experiment: Western blot of cultured HFSCs stimulated with OSM, with or without JAK inhibitor pre-treatment; type: cell-based, mouse
Procedure: (§3) HFSCs (ITGA6+ Sca-1−) cells were collected from flow cytometry and plated onto 6-well plates, and maintained with Cnt-07S keratinocyte media. In vitro stimulation experiments were carried out when keratinocytes were 80-90% confluent. Confluent HFSCs were pre-treated with JAK inhibitors (tofacitinib, ruxolitinib or PF-06651600, all at 10 μM) for 20 min, and murine OSM was added for a final concentration of 10 ng/ml or 20 ng/ml for 15 min. For clonogenic assays, HFSCs were plated at a density of 10,000 cells per well and maintained for 2 weeks. For analysis of clonogenicity, plates were washed with PBS, and keratinocytes were fixed in situ with 4% paraformaldehyde (PFA) for 1 hour, followed by staining with 1% (wt/vol) Rhodamine B (Sigma-Aldrich) for 1 h. Clones were quantified using a backlight.
Cells were lyzed in RIPA buffer in the presence of protease and phosphatase inhibitors on ice, and protein lysates were resuspended in Laemmli sample buffer. Whole-cell lysates were fractionated on TGX Stain-free protein gels and transferred to a PVDF membrane, blocked with 5% non-fat milk in TBST, and incubated with antibodies listed in the Key Resources Table (all 1:1000, diluted in TBST/3% BSA) overnight. Membranes were washed the following day and incubated with HRP-conjugated secondary antibodies (1:5000), washed, and developed with Luminata Forte Western HRP Substrate and visualized on the BioRAD ChemiDOC MP Imaging system. GAPDH or (3-actin were used as loading controls, depending on the mass of the proteins of interest.
Hair follicle stem cells (HFSCs) (ITGA6+ Sca-1− population isolated from telogen skin), were cultured and stimulated with OSM at 10 ng/ml and 20 ng/ml. […] (FIG. 1C).

macrophages = experiment: Macrophage inhibition during telogen to initiate anagen; type: in vivo, mouse; conditions: mid-telogen, C57BL/6 mice
Procedure: (§4) Neutralizing antibodies to OSMR (7.5 μg) were injected intradermally into the dorsal telogen skin daily for 14 days from P60 (mid-telogen). Neutralizing antibodies to CSFL1R (AFS98) and F4/80 (CI:A3-1) were diluted in sterile PBS, and 500 μg was injected intradermally into the dorsal telogen skin for 14 consecutive days. Neutralizing antibodies to CD25 (PC61.5) were injected intraperitoneally every other day (250 μg/dose×3) from P53, prior to anagen induction at P60.
(§5) For in vivo macrophage inhibition, the small molecule Pexidartinib/PLX3397 was administered topically (2 mM in DMSO) or subcutaneously (1 mM in corn oil) for 5 consecutive days from P60. For OSM knock-down, peritoneal macrophages were harvested from adult C57BL/6 mice and cultured in DMEM/F12/15% FBS/0.3 mMCa2+ the presence of […] M-CSF to polarize them to an “M2-like” phenotype, similar to trichophages. Lentiviral precipitate containing scrambled or OSM shRNA added to the media in the presence of 8 μg/ml protamine sulphate, and the cells were centrifuged at 3000 rpm for 1 h at 32° C. to enhance transduction. Successful transductions were enriched with puromycin (1 μg/ml) selection, counted and used for the patch assay.
Three independent methods of macrophage inhibition during telogen were used to initiate anagen in C57BL/6 mice.

[3] = system: T regulatory cells / macrophages; experiment: Anagen initiation after T regulatory cell depletion or macrophage targeting; type: in vivo, mouse
Procedure: as §4

(ITGA6+ Sca-1−) HFSCs = experiment: Colony-forming assay with isolated HFSCs; type: cell-based, mouse; conditions: for colony formation of HFSCs: OSM 10 ng/ml or Tofacitinib 100 nM alone
Procedure: as §3
Colony-forming assays with isolated (ITGA6+ Sca-1−) HFSCs were performed in the presence of OSM (10 ng/ml), Tofacitinib (100 nM) or both. […] (FIG. 1E).

[4] = system: Neonatal keratinocytes and dermal cells; experiment: Hair reconstitution (patch) assay; type: in vivo; conditions: tofacitinib 400 nM or OSM 25 ng/ml added to cell slurry injected intradermally into nude mouse
Procedure: as §5
Neonatal (P0 or P1) mice were sacrificed and skins were harvested for the patch assay. Neonatal skins were enzymatically separated with 0.25% trypsin, and the dermis was further digested with 0.3% collagenase/DNase. Neonatal keratinocytes and dermal cells were counted recombined in a 1:1 ratio ([…] each) and resuspended in 100 μl of media (1:1 mix of DMEM/10% FBS and CnT-0.7S) and injected intradermally into the dorsal skin of a nude mouse. For pharmacological/cytokine treatment, tofacitinib (400 nM) and/or OSM (25 ng/ml) was added. […]

alopecia areata = conditions: patients, literature (Mackay-Wiggan 2016; Kennedy Crispin 2016); cited from earlier work
telogen skin [5] = experiment: Inhibition of topical JAK inhibitor-induced anagen by intradermal gp130 cytokines; type: in vivo, mouse; conditions: cytokine injected intradermally into middle of field of topical application for 10 days from P60, C57BL/6 mice
Source text: as §1, §2

hair follicles = conditions: cited from earlier work
[6] = pre-treatment 10 μM for 20 min before OSM
[7] = OSM at 10 ng/ml and 20 ng/ml, cultured HFSCs

C=CC(=O)N1C[C@H](Nc2ncnc3[nH]ccc23)CC[C@@H]1C [PF-06651600]
anagen induction in telogen skin (telogen skin [1]): sufficient to initiate anagen | effect on JAK phosphorylation in OSM-stimulated HFSCs (Western blot) [2, 6]: did not have an effect on JAK1/JAK2/Tyk2 or STAT3 phosphorylation | effect on pSTAT3 / pSTAT5 activation in OSM-stimulated HFSCs (Western blot) [2, 6]: without significant inhibition of STAT3 phosphorylation | effect on pSTAT3 / pSTAT5 activation in OSM-stimulated HFSCs (Western blot) ([2]; pre-treatment 10 μM for 20 min before OSM, listed as PF-06651660): still inhibited pSTAT5 activation

FC(F)(F)c1ccc(CNc2ccc(Cc3c[nH]c4ncc(Cl)cc34)cn2)cn1 [Pexidartinib, 5-[(5-chloro-1H-pyrrolo[2,3-b]pyridin-3-yl)methyl]-N-[[6-(trifluoromethyl)pyridin-3-yl]methyl]pyridin-2-amine]
anagen initiation (macrophages; subcutaneous (1 mM in corn oil) for 5 days): successful at initiating anagen | anagen initiation (macrophages; topical (2 mM in DMSO) for 5 days): successful at initiating anagen | anagen initiation compared with wild-type mice treated with a JAK-inhibitor [3]: initiated anagen in the same manner as wild-type mice treated with a JAK-inhibitor

C[C@@H]1CCN(C(=O)CC#N)C[C@@H]1N(C)c1ncnc2[nH]ccc12 [Tofacitinib]
effect on JAK phosphorylation in OSM-stimulated HFSCs (Western blot) [2, 6]: inhibited phosphorylation of a variety of JAKs | effect on pSTAT3 / pSTAT5 activation in OSM-stimulated HFSCs (Western blot) [2, 6]: inhibited both pSTAT3 and pSTAT5 activation | inhibition of OSM-activated pathways by pre-treatment (Western blot) ([2]; pre-treatment 10 μM for 20 min before OSM, cultured HFSCs): inhibited the JAK-STAT and, to a lesser extent, the MAPK-MEK-ERK pathways | colony formation of HFSCs ((ITGA6+ Sca-1−) HFSCs): increased the colony-forming ability of HFSCs, as well as increasing the colony size | rescue of the inhibitory effects of OSM on colony formation ((ITGA6+ Sca-1−) HFSCs; Tofacitinib 100 nM together with OSM 10 ng/ml): sufficient to rescue the inhibitory effects of OSM | hair reconstitution in patch assay [4]: enhanced the hair follicles generated in this assay | efficacy in alopecia areata (alopecia areata): efficacious in the treatment of alopecia areata

B1: OSM: secreted cytokine of the LIF/OSM family; murine OSM used in tests (protein, UniProt P53347 25-206, looked up)
Oncostatin-M: NRGCSNSSSQLLSQLQNQANLTGNTESLLEPYIRLQNLNTPDLRAACTQHSVAFPSEDTLRQLSKPHFLSTVYTTLDRVLYQLDALRQKFLKTPAFPKLDSARHNILGIRNNVFCMARLLNHSLEIPEPTQTDSGASRSTTTPDVFNTKIGSCGFLWGYHRFMGSVGRVFREWDDGSTRSRR
inhibition of anagen resulting from topical Ruxolitinib (telogen skin [5]): inhibited anagen in the area it was administered | activation of JAK-STAT and MAPK-MEK-ERK pathways (Western blot) [2, 7]: activated JAK-STAT1/3/5 pathways and the MAPK-MEK-ERK pathways in HFSCs in a dose-dependent fashion | effect on PI3K/Akt/mTOR pathway (Western blot) [2, 7]: minimal effect on the PI3K/Akt/mTOR pathway | activation of JAKs, pSTAT3 and pSTAT5 (Western blot) ([2]; OSM-stimulated cultured HFSCs): dose-dependent activation of all four JAKs (JAK1, JAK2, JAK3, Tyk2), as well as pSTAT3 and pSTAT5 | colony formation of HFSCs ((ITGA6+ Sca-1−) HFSCs): prevented colonies from forming in vitro | hair reconstitution in patch assay [4]: sufficient to nearly completely inhibit hair reconstitution | effect on anagen (hair follicles; mouse, literature): potent inhibitor of anagen

B2: IL-6: gp130 cytokine, murine IL-6 (protein, UniProt P08505 25-211, looked up)
Interleukin-6: FPTSQVRRGDFTEDTTPNRPVYTTSQVGGLITHVLWEIVEMRKELCNGNSDCMNNDDALAENNLKLPEIQRNDGCYQTGYNQEICLLKISSGLLEYHSYLEYMKNNLKDNKKDKARVLQRDTETLIHIFNQEVKDLHKIVLPTPISNALLTDKLESQKEWLRTKTIQFILKSLEEFLKVTLRSTRQT
inhibition of anagen resulting from topical Ruxolitinib (telogen skin [5]): OSM was the only member of this class of cytokines that inhibited anagen | induction of catagen (hair follicles; anagen HFs, literature (Kwack 2012)): IL-6 induced catagen in anagen HFs
